The data set is described as follows: activity coefficient (dimensionless); of the first substance listed, at infinite dilution; xn = mol fraction of the nth substance listed. The settings on record: 101.33 kPa, Liquid, Chromatography, x1 = 0.

Numbers after ± are expanded uncertainties.

Results on 31 compounds are retold here after the NIST ThermoML archive (doi:10.1016/j.jct.2018.05.017).

Consider `CC(C)CO` [2-methyl-1-propanol] + CCCCCCn1cc[n+](C)c1C.F[B-](F)(F)F, for which the activity coefficient came out at 2.28 ± 0.24 (313.15 K); 2.15 ± 0.23 (323.15 K); 2.01 ± 0.21 (333.15 K); 1.9 ± 0.2 (343.15 K); 1.85 ± 0.19 (353.15 K).
Consider `CCO` [ethanol] + CCCCCCn1cc[n+](C)c1C.F[B-](F)(F)F, for which the activity coefficient runs as follows: (313.15 K) 1.4 ± 0.14; (323.15 K) 1.31 ± 0.13; (333.15 K) 1.23 ± 0.13; (343.15 K) 1.16 ± 0.12; (353.15 K) 1.09 ± 0.11.
On the same counts, the results for `Cc1ccccc1` [toluene] + CCCCCCn1cc[n+](C)c1C.F[B-](F)(F)F are 2.21 ± 0.23, 2.26 ± 0.24, 2.31 ± 0.24, 2.35 ± 0.25 and 2.4 ± 0.25.
`CCCCCC` [hexane] + CCCCCCn1cc[n+](C)c1C.F[B-](F)(F)F: the activity coefficient stood at 31 ± 3.3 (313.15 K); 29.5 ± 3.1 (323.15 K); 27.9 ± 2.9 (333.15 K); 26.3 ± 2.8 (343.15 K); 25 ± 2.6 (353.15 K).
In the case of `Cc1ccc(C)cc1` [1,4-dimethylbenzene] + CCCCCCn1cc[n+](C)c1C.F[B-](F)(F)F, the activity coefficient (313.15 K) worked out at 2.84 ± 0.3; the activity coefficient (323.15 K) amounted to 3.05 ± 0.32; the activity coefficient (333.15 K) came out at 3.29 ± 0.35; the activity coefficient (343.15 K) was 3.51 ± 0.37; the activity coefficient (353.15 K) stood at 3.76 ± 0.4.
For `C1=CCCCC1` [cyclohexene] + CCCCCCn1cc[n+](C)c1C.F[B-](F)(F)F, in that order: 9.89 ± 1, 9.67 ± 1, 9.51 ± 1, 9.36 ± 0.98 and 9.08 ± 0.95.
On the same counts, the results for `ClC(Cl)(Cl)Cl` [tetrachloromethane] + CCCCCCn1cc[n+](C)c1C.F[B-](F)(F)F are 3.5 ± 0.37, 3.61 ± 0.38, 3.7 ± 0.4, 3.72 ± 0.39 and 3.86 ± 0.41.
On the same counts, the results for `CCCCCCCCC` [nonane] + CCCCCCn1cc[n+](C)c1C.F[B-](F)(F)F are 89.5 ± 9.4, 83.5 ± 8.8, 77.8 ± 8.2, 72.6 ± 7.7 and 67.4 ± 7.1.
Regarding `CC(C)CC(C)(C)C` [2,2,4-trimethylpentane] + CCCCCCn1cc[n+](C)c1C.F[B-](F)(F)F, the activity coefficient (313.15 K) is 59.2 ± 6.2; the activity coefficient (323.15 K) is 59 ± 6.2; the activity coefficient (333.15 K) came out at 58.2 ± 6.1; the activity coefficient (343.15 K) was found to be 57.5 ± 6.1; the activity coefficient (353.15 K) turned out to be 57.2 ± 6.
For `CO` [methanol] + CCCCCCn1cc[n+](C)c1C.F[B-](F)(F)F, in that order: 0.96 ± 0.1, 0.91 ± 0.09, 0.86 ± 0.09, 0.82 ± 0.08 and 0.78 ± 0.08.
On the same counts, the results for `CCCCCCCC` [octane] + CCCCCCn1cc[n+](C)c1C.F[B-](F)(F)F are 65.1 ± 6.8, 64.1 ± 6.8, 62.1 ± 6.5, 61.2 ± 6.4 and 60.4 ± 6.4.
For `CCCCCCCCCC` [decane] + CCCCCCn1cc[n+](C)c1C.F[B-](F)(F)F, in that order: 125 ± 13, 121 ± 13, 112 ± 12, 102 ± 11 and 92 ± 9.7.
Turning to `Cc1ccccc1C` [1,2-dimethylbenzene] + CCCCCCn1cc[n+](C)c1C.F[B-](F)(F)F, the activity coefficient by setting is: (313.15 K) 2.38 ± 0.25; (323.15 K) 2.57 ± 0.27; (333.15 K) 2.76 ± 0.29; (343.15 K) 2.97 ± 0.31; (353.15 K) 3.16 ± 0.33.
For `Cc1cccc(C)c1` [1,3-dimethylbenzene] + CCCCCCn1cc[n+](C)c1C.F[B-](F)(F)F, in that order: 3.37 ± 0.35, 3.46 ± 0.36, 3.59 ± 0.38, 3.67 ± 0.39 and 3.79 ± 0.4.
With `CC#N` [acetonitrile] + CCCCCCn1cc[n+](C)c1C.F[B-](F)(F)F, the activity coefficient came out at 0.52 ± 0.06 (313.15 K); 0.54 ± 0.06 (323.15 K); 0.56 ± 0.06 (333.15 K); 0.57 ± 0.06 (343.15 K); 0.58 ± 0.06 (353.15 K).
Turning to `C1COCCO1` [1,4-dioxane] + CCCCCCn1cc[n+](C)c1C.F[B-](F)(F)F, the activity coefficient runs as follows: (313.15 K) 1.08 ± 0.11; (323.15 K) 1.09 ± 0.11; (333.15 K) 1.1 ± 0.11; (343.15 K) 1.12 ± 0.11; (353.15 K) 1.13 ± 0.12.
On the same counts, the results for `CCc1ccccc1` [ethylbenzene] + CCCCCCn1cc[n+](C)c1C.F[B-](F)(F)F are 3.81 ± 0.4, 3.84 ± 0.4, 3.88 ± 0.41, 3.93 ± 0.41 and 3.95 ± 0.42.
As to `C1CCCCC1` [cyclohexane] + CCCCCCn1cc[n+](C)c1C.F[B-](F)(F)F, the activity coefficient (313.15 K) came out at 19.8 ± 2.1; the activity coefficient (323.15 K) came out at 19.6 ± 2.1; the activity coefficient (333.15 K) came out at 19.5 ± 2; the activity coefficient (343.15 K) was 19.1 ± 2; the activity coefficient (353.15 K) was 18.9 ± 2.
Take `CCCO` [propan-1-ol] + CCCCCCn1cc[n+](C)c1C.F[B-](F)(F)F: the activity coefficient runs as follows: (313.15 K) 1.74 ± 0.18; (323.15 K) 1.65 ± 0.17; (333.15 K) 1.53 ± 0.16; (343.15 K) 1.43 ± 0.15; (353.15 K) 1.33 ± 0.14.
Turning to `CC(C)O` [propan-2-ol] + CCCCCCn1cc[n+](C)c1C.F[B-](F)(F)F, the activity coefficient (313.15 K) stood at 1.75 ± 0.18; the activity coefficient (323.15 K) is 1.67 ± 0.17; the activity coefficient (333.15 K) stood at 1.58 ± 0.16; the activity coefficient (343.15 K) is 1.46 ± 0.15; the activity coefficient (353.15 K) is 1.39 ± 0.14.
For the compound `CCCCO` [butan-1-ol] + CCCCCCn1cc[n+](C)c1C.F[B-](F)(F)F, the activity coefficient is 2.77 ± 0.29 (313.15 K); 2.67 ± 0.28 (323.15 K); 2.5 ± 0.3 (333.15 K); 2.37 ± 0.25 (343.15 K); 2.27 ± 0.24 (353.15 K).
For `CCC(C)O` (stereo not given) [butan-2-ol] + CCCCCCn1cc[n+](C)c1C.F[B-](F)(F)F, the activity coefficient runs as follows: (313.15 K) 2.65 ± 0.28; (323.15 K) 2.56 ± 0.27; (333.15 K) 2.48 ± 0.26; (343.15 K) 2.38 ± 0.25; (353.15 K) 2.28 ± 0.24.
For the compound `c1ccccc1` [benzene] + CCCCCCn1cc[n+](C)c1C.F[B-](F)(F)F, the activity coefficient (313.15 K) was determined as 1.54 ± 0.16; the activity coefficient (323.15 K) is 1.55 ± 0.16; the activity coefficient (333.15 K) was 1.57 ± 0.16; the activity coefficient (343.15 K) turned out to be 1.58 ± 0.16; the activity coefficient (353.15 K) is 1.59 ± 0.17.
In the case of `CC1CCCCC1` [methylcyclohexane] + CCCCCCn1cc[n+](C)c1C.F[B-](F)(F)F, the activity coefficient stood at 25.4 ± 2.7 (313.15 K); 25.4 ± 2.7 (323.15 K); 24.9 ± 2.6 (333.15 K); 24.5 ± 2.6 (343.15 K); 23.9 ± 2.5 (353.15 K).
Turning to `ClCCl` [dichloromethane] + CCCCCCn1cc[n+](C)c1C.F[B-](F)(F)F, the activity coefficient runs as follows: (313.15 K) 0.7 ± 0.07; (323.15 K) 0.74 ± 0.08; (333.15 K) 0.8 ± 0.08; (343.15 K) 0.87 ± 0.09; (353.15 K) 0.93 ± 0.09.
With `C1CCOC1` [tetrahydrofuran] + CCCCCCn1cc[n+](C)c1C.F[B-](F)(F)F, the activity coefficient reads like this: (313.15 K) 1.6 ± 0.17; (323.15 K) 1.62 ± 0.17; (333.15 K) 1.63 ± 0.17; (343.15 K) 1.65 ± 0.17; (353.15 K) 1.58 ± 0.16.
Regarding `ClC(Cl)Cl` [trichloromethane] + CCCCCCn1cc[n+](C)c1C.F[B-](F)(F)F, the activity coefficient is, setting by setting: (313.15 K) 0.68 ± 0.07; (323.15 K) 0.72 ± 0.08; (333.15 K) 0.77 ± 0.08; (343.15 K) 0.82 ± 0.08; (353.15 K) 0.87 ± 0.09.
As to `CC(C)=O` [acetone] + CCCCCCn1cc[n+](C)c1C.F[B-](F)(F)F, the activity coefficient by setting is: (313.15 K) 0.84 ± 0.09; (323.15 K) 0.87 ± 0.09; (333.15 K) 0.9 ± 0.09; (343.15 K) 0.93 ± 0.09; (353.15 K) 0.96 ± 0.1.
On to `CCCCC` [pentane] + CCCCCCn1cc[n+](C)c1C.F[B-](F)(F)F, for which the activity coefficient amounted to 28.9 ± 3 (313.15 K); 25.6 ± 2.7 (323.15 K); 22.9 ± 2.4 (333.15 K); 20.6 ± 2.2 (343.15 K); 18.8 ± 2 (353.15 K).
For `CCOC(C)=O` [ethyl acetate] + CCCCCCn1cc[n+](C)c1C.F[B-](F)(F)F, in that order: 2.01 ± 0.21, 2.12 ± 0.22, 2.16 ± 0.23, 2.21 ± 0.23 and 2.26 ± 0.24.
For `CCCCCCC` [heptane] + CCCCCCn1cc[n+](C)c1C.F[B-](F)(F)F, the activity coefficient by setting is: (313.15 K) 47.9 ± 5; (323.15 K) 45.4 ± 4.8; (333.15 K) 42.8 ± 4.5; (343.15 K) 40.2 ± 4.2; (353.15 K) 37.4 ± 3.9.
